Values after ≈ are worked out from the molar mass of the structure shown. Values joined by “and” are separate entries in the source; they are usually repeats but may differ in a detail not shown here. Equal entries are not always repeated.
How the values were obtained:
Assay in all cases: ≥ marks a high value that may be exact or a test limit, other limits are often not marked, values filed in µg/mL are converted to µM
Fusarium verticillioides = tested on: Fusarium verticillioides
[1] = tested on: Pseudomonas aeruginosa KCTC 1637
[2] = tested on: Escherichia coli O157:H7 ATCC 43895
[3] = tested on: Staphylococcus epidermidis
[4] = tested on: Escherichia coli KCTC 1682
[5] = tested on: Aspergillus fumigatus KCTC 6145
[6] = tested on: Candida albicans KCTC 7270
[7] = tested on: Salmonella typhimurium KCTC 1926
[8] = tested on: Aspergillus flavus KCTC 9471
[9] = tested on: Staphylococcus aureus KCTC 1621
Botrytis cinerea = tested on: Botrytis cinerea
[10] = tested on: Listeria monocytogenes KCTC 3710
Escherichia coli = tested on: Escherichia coli
Proteus vulgaris = tested on: Proteus vulgaris
[11] = tested on: Saccharomyces cerevisiae KCTC 7296
[12] = tested on: Trichosporon beigelii KCTC 7707
Pseudomonas aeruginosa = tested on: Pseudomonas aeruginosa
[13] = tested on: Staphylococcus epidermidis KCTC 1917
[14] = tested on: Bacillus subtilis KCTC 1918
[15] = tested on: Staphylococcus aureus USA 300 LAC
[16] = tested on: Staphylococcus aureus USA 300
[17] = tested on: Pseudomonas aeruginosa PAO1
[18] = tested on: Escherichia coli ATCC 25922
[19] = tested on: Klebsiella pneumoniae ATCC 13883
Klebsiella pneumoniae 1 = tested on: Klebsiella pneumoniae 1
Klebsiella pneumoniae 2 = tested on: Klebsiella pneumoniae 2
Escherichia coli 1 = tested on: Escherichia coli 1
[20] = tested on: Staphylococcus aureus 209P
Pseudomonas aeruginosa 2 = tested on: Pseudomonas aeruginosa 2
Escherichia coli C600 = tested on: Escherichia coli C600
[21] = tested on: Staphylococcus aureus ATCC 33591
Pseudomonas aeruginosa 1 = tested on: Pseudomonas aeruginosa 1
Candida glabrata = tested on: Candida glabrata
Vibrio splendidus = tested on: Vibrio splendidus
Candida albicans 1 = tested on: Candida albicans 1
Staphylococcus aureus = tested on: Staphylococcus aureus
Candida albicans = tested on: Candida albicans
Enterococcus faecium = tested on: Enterococcus faecium
[22] = tested on: Vibrio parahaemolyticus ATCC 17802
Bacillus cereus = tested on: Bacillus cereus
Klebsiella pneumoniae = tested on: Klebsiella pneumoniae
Vibrio anguillarum = tested on: Vibrio anguillarum
[23] = tested on: Acinetobacter baumannii 1
Vibrio cholerae = tested on: Vibrio cholerae
Acinetobacter baumannii = tested on: Acinetobacter baumannii
[24] = tested on: Staphylococcus aureus ATCC 25923
Staphylococcus aureus 1 = tested on: Staphylococcus aureus 1
Vibrio parahaemolyticus = tested on: Vibrio parahaemolyticus
Bacillus subtilis = tested on: Bacillus subtilis
[25] = tested on: Pseudomonas aeruginosa ATCC 27853
Aspicilia cinerea = tested on: Aspicilia cinerea
Proteus mirabilis = tested on: Proteus mirabilis
Citrobacter sp. = tested on: Citrobacter sp.
[26] = tested on: Pseudomonas aeruginosa ATCC 15442
Streptococcus pneumoniae = tested on: Streptococcus pneumoniae
[27] = tested on: Acinetobacter baumannii ATCC 15308
Enterobacter cloacae = tested on: Enterobacter cloacae

With CC[C@H](C)[C@H](NC(=O)[C@H](CCCCN)NC(=O)[C@H](CO)NC(=O)[C@H](Cc1ccccc1)NC(=O)[C@H](CC(C)C)NC(=O)[C@H](CCCCN)NC(=O)[C@H](CCC(=O)O)NC(=O)[C@H](CC(C)C)NC(=O)[C@H](CCCN=C(N)N)NC(=O)[C@H](CCCCN)NC(=O)[C@H](Cc1ccccc1)NC(=O)[C@@H](NC(=O)[C@H](CCCCN)NC(=O)[C@H](CCCCN)NC(=O)[C@H](C)N)C(C)C)C(=O)N[C@@H](CCC(N)=O)C(=O)N[C@@H](CC(N)=O)C(=O)N[C@@H](CC(=O)O)C(=O)N[C@@H](CCCCN)C(N)=O [AKKVFKRLEKLFSKIQNDK] the MIC (Fusarium verticillioides) was 25 µM (≈ 58 µg/mL), the MIC [1] was 1.56 µM (≈ 3.62 µg/mL) and the MIC [2] was 12.5 µM (≈ 29 µg/mL). The MIC [3] was 6.25 µM (≈ 14.5 µg/mL), the MIC [4] was 12.5 µM (≈ 29 µg/mL) and the MIC [5] was at least 50 µM. For the same compound, the MIC [6] was 25 µM (≈ 58 µg/mL), the MIC [7] was 1.56 µM (≈ 3.62 µg/mL) and the MIC [8] was at least 50 µM. It also gave an MIC [9] of 12.5 µM (≈ 29 µg/mL), an MIC (Botrytis cinerea) of 12.5 µM (≈ 29 µg/mL) and an MIC [10] of 6.25 µM (≈ 14.5 µg/mL). It also gave an MIC (Escherichia coli) of 3.13 µM (≈ 7.26 µg/mL), an MIC (Proteus vulgaris) of 4.42 µM (≈ 10.3 µg/mL) and an MIC [11] of 25 µM (≈ 58 µg/mL). For the same compound, the MIC [12] was 3.13 µM (≈ 7.26 µg/mL), the MIC (Pseudomonas aeruginosa) was 6.25 µM (≈ 14.5 µg/mL) and the MIC [13] was 3.12 µM (≈ 7.25 µg/mL). It also gave an MIC [14] of 3.13 µM (≈ 7.26 µg/mL).
Work on CC[C@H](C)[C@H](NC(=O)[C@H](CCCN=C(N)N)NC(=O)[C@H](CCCN=C(N)N)NC(=O)[C@H](CC(C)C)NC(=O)[C@H](Cc1c[nH]c2ccccc12)NC(=O)[C@H](Cc1c[nH]c2ccccc12)NC(=O)[C@@H](N)Cc1c[nH]c2ccccc12)C(=O)N[C@@H](CCCN=C(N)N)C(N)=O [WWWLRRIR] yielded an MIC [15] of 12.5 µM (≈ 15.9 µg/mL), an MIC [16] of 12.5 µM (≈ 15.9 µg/mL) and an MIC [17] of 12.5 µM (≈ 15.9 µg/mL). It also gave an MIC [18] of 25 µM (≈ 31.8 µg/mL) and an MIC [19] of 25 µM (≈ 31.8 µg/mL).
In the case of CC(C)[C@@H]1NC(=O)CNC(=O)[C@H](CCCN=C(N)N)NC(=O)[C@H](C(C)C)NC(=O)[C@@H]2CSSC[C@H](NC1=O)C(=O)N[C@@H](Cc1ccc(O)cc1)C(=O)N[C@@H](CCCN=C(N)N)C(=O)N[C@@H](CCCN=C(N)N)C(=O)N[C@H](C(=O)N[C@@H](Cc1c[nH]c3ccccc13)C(=O)O)CSSC[C@H](NC(=O)[C@H](Cc1c[nH]c3ccccc13)NC(=O)[C@@H](N)CCCN=C(N)N)C(=O)N[C@@H](C(C)C)C(=O)N[C@@H](Cc1ccc(O)cc1)C(=O)N[C@@H](C)C(=O)N2 [RWCVYACVRGVCYRRCW], the MIC (Klebsiella pneumoniae 1) is reported as 1 µM and 2 µM, the MIC (Klebsiella pneumoniae 2) is reported as 2 µM and 4 µM and the MIC [17] is reported as 3.13 µM (≈ 6.81 µg/mL). The MIC (Escherichia coli 1) was 1 µM and 0.5 µM, the MIC [20] was 3.13 µM (≈ 6.81 µg/mL) and the MIC (Pseudomonas aeruginosa 2) was 2 µM (≈ 4.35 µg/mL). For the same compound, the MIC (Escherichia coli C600) was 1.56 µM (≈ 3.39 µg/mL), the MIC [21] was 0.12 µM (≈ 0.261 µg/mL) and the MIC (Escherichia coli) was 0.5 µM and 1 µM. The MIC (Pseudomonas aeruginosa 1) was 2 µM (≈ 4.35 µg/mL).
For CC[C@H](C)[C@H](NC(=O)[C@H](CCCCN)NC(=O)[C@H](CC(C)C)NC(=O)[C@H](C)NC(=O)CNC(=O)[C@H](CC(N)=O)NC(=O)[C@H](CC(C)C)NC(=O)[C@@H](NC(=O)[C@H](CCCCN)NC(=O)[C@H](CCCCN)NC(=O)[C@H](Cc1c[nH]c2ccccc12)NC(=O)[C@H](Cc1ccccc1)NC(=O)[C@H](CCCCN)NC(=O)[C@H](CCCN=C(N)N)NC(=O)[C@H](CCCN=C(N)N)NC(=O)[C@@H](N)[C@@H](C)O)C(C)C)C(=O)N[C@@H](C)C(=O)N1CCC[C@H]1C(=O)N[C@@H](Cc1ccccc1)C(=O)N[C@@H](CC(C)C)C(=O)N[C@@H](CC(C)C)C(=O)NCC(=O)O [TRRKFWKKVLNGALKIAPFLLG], the MIC (Klebsiella pneumoniae 1) was at least 78.2 µM, the MIC (Candida glabrata) was 14.7 µM (≈ 37.5 µg/mL) and the MIC [3] was 7.33 µM (≈ 18.8 µg/mL). It also gave an MIC (Vibrio splendidus) of 1.83 µM (≈ 4.69 µg/mL), an MIC (Candida albicans 1) of 5.19 µM (≈ 13.3 µg/mL) and an MIC (Staphylococcus aureus) of 14.7 µM (≈ 37.5 µg/mL). For the same compound, the MIC (Candida albicans) was 14.7 µM (≈ 37.5 µg/mL), the MIC (Escherichia coli 1) was 7.33 µM (≈ 18.8 µg/mL) and the MIC (Enterococcus faecium) was 7.33 µM (≈ 18.8 µg/mL). For the same compound, the MIC [22] was 1.83 µM (≈ 4.69 µg/mL), the MIC (Bacillus cereus) was 7.33 µM (≈ 18.8 µg/mL) and the MIC (Klebsiella pneumoniae) was 5.19 µM (≈ 13.3 µg/mL). For the same compound, the MIC (Vibrio anguillarum) was 1.83 µM (≈ 4.69 µg/mL), the MIC [23] was 7.33 µM (≈ 18.8 µg/mL) and the MIC (Vibrio cholerae) was 7.33 µM (≈ 18.8 µg/mL). For the same compound, the MIC (Acinetobacter baumannii) was at least 78.2 µM, the MIC [24] was 14.7 µM (≈ 37.5 µg/mL) and the MIC (Staphylococcus aureus 1) was 5.19 µM (≈ 13.3 µg/mL). For the same compound, the MIC (Vibrio parahaemolyticus) was 1.83 µM (≈ 4.69 µg/mL), the MIC (Proteus vulgaris) was at least 78.2 µM and the MIC (Bacillus subtilis) was 0.919 µM (≈ 2.35 µg/mL). For the same compound, the MIC [25] was 7.33 µM (≈ 18.8 µg/mL), the MIC (Pseudomonas aeruginosa) was 5.19 µM (≈ 13.3 µg/mL) and the MIC (Aspicilia cinerea) was 7.33 µM (≈ 18.8 µg/mL). The MIC (Proteus mirabilis) was 1.83 µM (≈ 4.69 µg/mL).
With NC(=O)[C@H](CCCN=C(N)N)NC(=O)[C@H](CCCN=C(N)N)NC(=O)[C@H](Cc1c[nH]c2ccccc12)NC(=O)[C@@H]1CCCN1C(=O)[C@H](Cc1c[nH]c2ccccc12)NC(=O)[C@H](CCCN=C(N)N)NC(=O)[C@@H]1CCCN1C(=O)[C@H](Cc1c[nH]c2ccccc12)NC(=O)[C@H](CCCN=C(N)N)NC(=O)[C@H](Cc1c[nH]c2ccccc12)NC(=O)[C@@H]1CCCN1C(=O)[C@H](CCCN=C(N)N)NC(=O)[C@@H](N)CCCN=C(N)N [RRPWRWPRWPWRR] the MIC (Citrobacter sp.) was at least 126 µM, the MIC (Staphylococcus aureus) was 31.4 µM (≈ 62.5 µg/mL) and the MIC [26] was 15.7 µM (≈ 31.2 µg/mL). For the same compound, the MIC (Streptococcus pneumoniae) was 31.4 µM (≈ 62.5 µg/mL), the MIC (Klebsiella pneumoniae) was over 126 µM and the MIC [24] was 15.7 µM (≈ 31.2 µg/mL). It also gave an MIC [18] of 15.7 µM (≈ 31.2 µg/mL), an MIC [27] of at least 126 µM and an MIC (Enterobacter cloacae) of at least 126 µM.

Reference: DBAASP
